From patent US12479858B2, “Macrocyclic compounds as sting agonists and methods and uses thereof” (Lupin Limited, priority 2019, dated 2025)
Structures can show the parent of a compound that is named as a salt. Where two headings read alike, the source gives them in different places.

How the values were obtained:
[1] = Apparent solubility/extended kinetic solubility by UHPLC; format: physicochemical; conditions: aqueous buffer, thermodynamic from solid, phosphate buffer, 37° C.
Method: Biological Assay—Determination of Apparent Solubility/Extended Kinetic Solubility by UHPLC
Test sample preparation: About 0.5 mg of the test sample was weighed and transferred in duplicate in 1 mL glass inserts of 96 well plates. 5 μL of DMSO and 1 ml of phosphate buffer were added. Allowed for equilibrium in an orbital shaker at 37° C. for 24 hrs. Later, allowed it cool to room temperature and centrifuged the 96 well plate (at 240×10 RPM for 20 min) and supernatant material was taken into collection plate, covered it with the heat resistant aluminum sheet or supernatant material was directly taken into HPLC sample vial.
Injected diluent as blank and linearity solutions in duplicate. Recorded the chromatograms and plotted the calibration curve, concentration (X-axis) versus Area (y-axis). The correlation coefficient for calibration curve should be not less than 0.95. If above criteria passes, then injected the test samples and recorded the chromatograms. In case saturated peaks are observed, then diluted the test sample with diluent as appropriate.
Calculated the slope and intercept of the calibration curve. From the standard curve, determined the solubility of the sample in μM (micromolar).

[2] = Plasma and tumor compound concentrations in CT26 tumor-bearing mice (LC-MS/MS); format: in vivo, BALB/c mice; conditions: 0.375 mg/kg single i.v.; for concentration at 3.5 h: 3.5 h (Table 4); for concentration at 8 h: 8 h (Table 4); for concentration at 12 h: 12 h (Table 4)
Method: (§1) Pharmacokinetic and Pharmacodynamic Profiling and Estimation of Immune Cell Infiltration in Tumors Following Treatment with Compounds 2, 6, 8, 12 and 14
(§2) Serum and tumor cytokine levels and corresponding compound concentrations in mouse plasma were determined following single-dose intravenous administration in CT26 (murine colorectal carcinoma) tumor-bearing mice. Briefly, naïve BALB/c mice in the age group of 6-8 weeks were inoculated with 0.1 million CT-26 cells/animal in phosphate buffered saline (PBS), subcutaneously. […] Blood and tumor samples were harvested at various time points up to 24 h post-dose. Tumor samples were homogenized and prepared for cytokine estimation (ELISA) and compound concentration were determined by LC-MS/MS. Serum aliquots and tumor samples were snap-frozen and stored at −80° C. till further analysis. Serum and tumor samples were evaluated for Interferon beta (IFNβ), interleukin-6 (IL-6) and tumor necrosis factor alpha (TNFα) by enzyme linked immunosorbent assay (ELISA) using kits from R & D systems (Quantikine mouse IL-6 and TNFα kits) and PBL biosciences (Verikine mouse IFNβ kit).
Bioanalysis of plasma and tumor samples: Plasma and tumor concentrations of test compounds were determined by LC-MS/MS method. Tumor samples were homogenized utilizing a bead-based homogenizer. Plasma samples and tumor homogenates were extracted using protein precipitation method with organic solution containing respective internal standards. Plasma and tumor concentrations were determined against respective calibration curve. Table 3 indicates the concentration of Compound 2 in plasma and tumor at different administered doses. Table 4 indicates the concentration of Compounds 6, 8, 12, and 14 in plasma and tumor at different administered doses. Table 5 indicates cytokine levels for Compound 2 in serum and tumor at different doses. Table 6 indicates cytokine levels for Compounds 6, 8, 12 and 14 in serum and tumor at 0.375 mpk.

[3] = system: Interferon beta (IFNβ), interleukin-6 (IL-6) and tumor necrosis factor alpha (TNFα); test: Serum and tumor cytokine levels in CT26 tumor-bearing mice (ELISA); format: in vivo, BALB/c mice; conditions: 0.375 mg/kg single i.v.
Method: as §1, §2
Cytokine analysis from mouse serum samples: For IL-6 and TNFα estimation, 50 μL of test samples or internal standard or control were applied to wells in duplicates and incubated for 2 h at room temperature, followed by aspiration and washing four times with 400 μL of wash buffer. 100 μL of mouse IL-6 or TNFα conjugate solution was added and incubated further for 2 h at room temperature and followed later by 4 wash cycles. 100 μL of substrate solution was added to each well with addition of stop solution after 30 min. Optical density was measured at 450 nm averaged and was used for further calculations following subtraction of respective blank controls. Cytokine concentrations were determined by interpolating the optical density of samples into the reference standard curve utilizing four parameter logistic (4-PL) curve-fit. Cytokine concentrations were normalized with their respective dilution factors and represented in pg/mL. For IFNβ estimation, 100 μL test sample or internal standard or controls were applied to the wells in duplicates and incubated for 1 h at room temperature followed by three washes and addition of the anti-mouse IFNβ antibody solution with further 1 h incubation. This was followed by addition of horseradish peroxidase (HRP) solution and three washes, later addition of TMB substrate and reading the optical density at 450 nm. Optical densities were blank-subtracted and interpolated to the reference standard utilizing the four parameter logistic (4-PL) curve-fit. Cytokine concentrations were normalized with their respective dilution factors and represented in pg/mL. Tables 4 and 5 indicate cytokine levels for compounds 2, 6, 8, 12, and 14 in serum and tumor at different administered doses.
Cytokine analysis from tumor samples: Tumor samples were homogenized in a bead-based homogenizer and lysates were prepared with buffer supplemented with 1% Triton X-100 and protease inhibitors. Cytokine levels were estimated by ELISA and expressed as pg/g tumor.

[4] = BALB/c, mouse, plasma, intravenous, read-out: Plasma Conc.
[5] = BALB/c, mouse, tumor, intravenous, read-out: Tumor Conc.

With CCn1nc(C)cc1C(=O)Nc1nc2cc(C(N)=O)cc3c2n1C/C=C/Cn1c(NC(=O)c2cc(C)nn2CC)nc2cc(C(=O)N[C@H]4CC[C@H](C(=O)O)CC4)cc(c21)OC[C@@H](N1C2CCC1COC2)CO3 [Compound 14, (1S,4R)-4-((8S,E)-8-(3-oxa-8-azabicyclo[3.2.1]octan-8-yl)-12-carbamoyl-1,15-bis(1-ethyl-3-methyl-1H-pyrazole-5-carboxamido)-8,9,16,19-tetrahydro-7H-6,10-dioxa-2,14,15a,19a-tetraazacyclopentadeca[3,2,1-cd:8,9,10-c′d′]diindene-4-carboxamido)cyclohexane-1-carboxylic acid sodium salt] the solubility at 24 h [1] was 6.8 mM, the “Plasma Conc.” value ([2]; 24 h (Table 4)) was “BLQ” and the concentration at 3.5 h [2, 4] was 450 ± 70 nM. For the same compound, the concentration at 8 h [2, 4] was 90 ± 10 nM, the concentration at 12 h [2, 4] was 70 ± 60 nM and the concentration at 3.5 h [2, 5] was 170 ± 20 nM. It also gave a concentration at 8 h [2, 5] of 130 ± 20 nM, a concentration at 12 h [2, 5] of 160 ± 60 nM and a concentration at 24 h ([2]; BALB/c, mouse, tumor, intravenous, 24 h (Table 4), read-out: Tumor Conc.) of 180 ± 60 nM. The “Serum IFNβ” value ([3]; 3.5 h (Table 6)) was 768 ± 330.8 pg/mL, the “Tumor IFNβ” value ([3]; 3.5 h (Table 6)) was 2433 ± 653.8 pg/g tumor and the “Serum IFNβ” value ([3]; 8 h (Table 6)) was 415 ± 8.7 pg/mL. The “Tumor IFNβ” value ([3]; 8 h (Table 6)) was 2137 ± 261.8 pg/g tumor, the “Serum IFNβ” value ([3]; 12 h (Table 6)) was 5 ± 5 pg/mL and the “Tumor IFNβ” value ([3]; 12 h (Table 6)) was 752 ± 126.6 pg/g tumor. For the same compound, the “Serum IFNβ” value ([3]; 24 h (Table 6)) was “BLQ” and the “Tumor IFNβ” value ([3]; 24 h (Table 6)) was 380 ± 239 pg/g tumor.
